For assay [1], the system named is human dermal fibroblast (HDF) primary cells. As to the kind of experiment: H2O2-resistance in primary human dermal fibroblasts. The format is cell-based. The settings on record: YES/NO.
Assay [2] has as its system C. elegans. As to the kind of experiment: C. elegans lifespan assays (liquid and plate). The settings on record: Caenorhabditis elegans, at 66 uM. The format is in vivo, Caenorhabditis elegans.
The test system of assay [3] is HTB-178 lung tumor cells (EGFR+, PIK3CA+, RB1−, TP53−). As to the kind of experiment: Killing effects on HTB-178 tumor cells. The format is cell-based, human. The settings on record: Assay 1(y), at 10 uM.
In assay [4] the test system is WI-38 cells. The settings on record: for EC50: read-out: Est. ED50, dose response 0.6-20 μM, H2O2-resistance; for Assay 1: H2O2-resistant: YES/NO, if NO, possibly due to repeated freezing/thawing of stocks.
Assay [5] deals with NRF2. As to the kind of experiment: qPCR analysis of NRF2-regulated genes. The assay is classed as cell-based, human. The settings on record: Homo sapiens, 24 h, Assay 12(o), at 10 uM, qPCR. The method in brief:
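WI-38 cells treated with compound at 10 μM for 24 hrs, then processed by Cells-to-Ct for RNA isolation, RT and qPCR of NRF2-regulated genes (HMOX1, NQO1, GCLC, GSTM1). Expression normalized to B2M, PPIA and GAPDH; siRNA knockdown of FOXO3 or NRF2 (10 nM) preceded treatment in some runs.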
On the technique in general: Quantitative PCR measures a nucleic acid by following its amplification.

The subject of assay [6] is FOXO3. The assay is described as follows: qPCR analysis of FOXO3-regulated genes. The format is cell-based, human. The settings on record: Homo sapiens, 24 h, Assay 10(m), at 10 uM, qPCR. An outline of the steps: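 WI-38 cells treated with compound at 10 μM for 24 h, followed by Cells-to-Ct RT-qPCR of FOXO3 target genes normalised to B2M, PPIA and GAPDH. FOXO3 or NRF2 dependence tested by prior 10 nM siRNA knockdown (36 h transfection, compound added ~24 h after replating).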

For assay [7], the target named is T1, human PARP1 (Homo sapiens, UniProt P09874).
T1 construct: purchased Trevigen
T1 sequence (P09874 whole entry): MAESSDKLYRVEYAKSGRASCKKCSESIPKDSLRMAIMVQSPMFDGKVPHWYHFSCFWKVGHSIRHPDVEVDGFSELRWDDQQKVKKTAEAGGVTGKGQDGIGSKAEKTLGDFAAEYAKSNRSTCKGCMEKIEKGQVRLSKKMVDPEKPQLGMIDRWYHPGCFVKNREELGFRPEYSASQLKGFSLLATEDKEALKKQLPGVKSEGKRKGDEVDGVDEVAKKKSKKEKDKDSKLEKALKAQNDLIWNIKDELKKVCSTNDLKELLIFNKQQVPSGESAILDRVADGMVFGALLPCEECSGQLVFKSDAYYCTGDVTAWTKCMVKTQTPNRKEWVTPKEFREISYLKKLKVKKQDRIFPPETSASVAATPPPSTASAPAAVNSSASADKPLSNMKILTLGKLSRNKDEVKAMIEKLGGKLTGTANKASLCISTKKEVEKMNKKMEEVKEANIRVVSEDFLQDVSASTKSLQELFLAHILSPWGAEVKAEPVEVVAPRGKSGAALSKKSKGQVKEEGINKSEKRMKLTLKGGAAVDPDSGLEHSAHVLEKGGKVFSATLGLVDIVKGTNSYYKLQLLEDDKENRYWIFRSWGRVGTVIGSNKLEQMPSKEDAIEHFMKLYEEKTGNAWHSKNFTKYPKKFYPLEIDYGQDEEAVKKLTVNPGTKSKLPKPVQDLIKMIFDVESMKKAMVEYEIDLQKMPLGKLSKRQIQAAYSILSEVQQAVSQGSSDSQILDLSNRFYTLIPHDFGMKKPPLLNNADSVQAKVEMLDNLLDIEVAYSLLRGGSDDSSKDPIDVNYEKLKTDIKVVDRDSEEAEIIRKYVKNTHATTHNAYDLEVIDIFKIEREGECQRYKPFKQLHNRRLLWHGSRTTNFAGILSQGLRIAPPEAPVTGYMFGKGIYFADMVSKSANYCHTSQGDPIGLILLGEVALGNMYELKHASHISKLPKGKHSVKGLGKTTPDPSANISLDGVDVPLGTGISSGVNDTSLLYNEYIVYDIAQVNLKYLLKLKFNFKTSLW
The assay is described as follows: PARP inhibitor assay (HT Fluorescent Homogeneous PARP Inhibition Assay Kit). The format is biochemical. Particulars: 10 μM, in vitro. As to the method: (§1) The assay was performed with the HT Fluorescent Homogeneous PARP Inhibition Assay Kit (Trevigen), following manufacturer's instructions. Briefly, nicotinamide adenine dinucleotide, human PARP1 and activated-DNA solution was added onto a 96-well plate. 54 repurchased small molecules, at 10 μM final concentration, were introduced onto the 96-well assay plate and incubated in a humid chamber at room temperature for 30 min in dark. Cycling mixture, with resazurin and cycling enzyme diaphorase, was then added and incubated further for 1 hr in dark. Reaction was terminated by adding the stopping buffer.
as §1, with “(Trevegen),” for “(Trevigen),”, “stopped” for “terminated”

Assay [8] has as its system NRF2. As to the kind of experiment: in vitro. The format is cell-based, human. The settings on record: 10 uM; YES/NO. As to the method:
For qPCR analysis, WI-38 cells were treated with small molecules (at 10 μM) (biological quadruplicates) for 24 hrs and processed for RNA isolation and reverse transcription (RT) with the Cells-to-Ct Kit (Life Technologies), following manufacturer's instructions. RT products were diluted with H2O and used for qPCR analysis on an ABI 7300 system (Life Technologies) (technical triplicates). Relative expression levels of target genes were normalized to the genes B2M, PPIA and GAPDH. To knock down the expression of FOXO3 or NRF2, WI-38 cells were transfected, using the RNAiMAX reagents (Life Technologies), with siRNA oligos (at 10 nM final concentration, 10 ml culture medium) for FOXO3 (Life Technologies) or NRF2 (Integrated DNA Technologies) on 10-cm petri dishes for 36 hrs, and then detached and aliquoted onto 96-well (for qPCR analysis) or 384-well plates (for H2O2-stress treatment). ˜24 hrs later, small molecules were introduced and incubated with cells for 24 hrs. Cells were then either processed with the Cells-to-Ct Kit to prepare RT products for qPCR analysis or subjected to H2O2 (700 μM) for 3 hrs and assayed for viability. The knockdown efficiency of FOXO3 or NRF2 was checked at 36 hrs post-transfection and at the end as well.
For qPCR analysis, WI-38 cells were treated with small molecules (at 10 μM) (biological quadruplicate) for 24 hrs and processed for RNA isolation and reverse transcription (RT) with the Cells-to-Ct Kit (Life Technologies), following manufacturer's instructions. RT products were diluted with H2O and used for qPCR analysis on a LightCycler 480 system (Roche) (technical triplicates). Relative expression levels of target genes were normalized to the genes B2M, PPIA and GAPDH. To knock down the expression of FOXO3 or NRF2, WI-38 cells were transfected with siRNA oligos (at 10 nM final concentration) for FOXO3 (Life Technologies) or NRF2 on 10-cm petri dish for 36 hrs, and then detached and aliquoted onto 96-well plates. ˜24 hrs later, small molecules were introduced and incubated with cells for 24 hrs. Cells were then processed with the Cells-to-Ct Kit to prepare RT products for qPCR analysis. The knockdown efficiency of FOXO3 or NRF2 was checked at 36 hrs post-transfection and at the end as well.
Of these, O15 and O20 consistently (in 3 of 3 experiments) required NRF2 to promote H2O2-resistance, and their resistance capacities were reduced by ˜90% on average upon NRF2 knockdown under conditions tested.

Assay [9] deals with WI-38 cells. As to the kind of experiment: CdCl2 (cadmium) resistance assay. The settings on record: YES/NO; for Assay 2: Cadmium-resistant: * indicates partial. The assay is classed as cell-based, human. As to the method: (§2) For many stress conditions tested previously, one significant correlation to longevity is the cellular resistance to H2O2 or CdCl2. Applicants then tested these small molecules, at five different final concentrations (0.25 μM to 20 μM), for cadmium and MMS resistance in WI-38 cells.
(§3) The setups on 384-well plates and incubation times were the same as for H2O2 until the time of incubation with the stressors, which was 12 hours for both cadmium and MMS assays. Applicants tested several conditions, including conditions used to assay fibroblasts from long-lived animals (Salmon et al., 2005). These conditions produced better results with the positive controls (KEAP1 and AKT1 siRNAs) in the MMS assay. Thus, for MMS, the cells were shifted from growth media—OptiMEM+10% FBS, to DMEM (Gibco)+2% BSA (no serum) just before adding small molecules, which occurred 24 hours before MMS addition.
(§4) Isolated small molecules were tested for MMS and cadmium resistance twice in two independent assays. Each small molecule was analyzed at five different concentrations (0.25 μM to 20 μM final concentration), with technical triplicates for each dose. Data were analyzed using a global variance t-test.

Assay [10] concerns WI-38 cells. As to the kind of experiment: MMS resistance assay. The assay is classed as cell-based, human. Particulars: YES/NO; for Assay 3: MMS-resistant: * indicates partial; for Assay 5: Triple resistant: H2O2, cadmium and MMS. As to the method: as §2, §3, §4
Setting [11] is: Assay 2(z), 1.0 × 10^9 bacteria/ml, wild type + FuDR (2012 July), read-out: Lifespan assay in liquid.
Setting [12] is: Assay 3(aa), 2.5 × 10^9 bacteria/ml, wild type + FuDR, read-out: Lifespan assay in liquid.
The mark [13] stands for this setting: Assay 4(ab), 2.0 × 10^10 bacteria/ml, CF512 worms, no FuDR, read-out: Lifespan assay on plates.
Where [14] appears, read: read-out: Induction of FOXO3-regulated genes: SOD2 normalized fold-change.

Entries after “also recorded” stand apart in the source; their conditions may differ. Where two headings read alike, the source gives them in different places.

For the compound `CC(Nc1cc(C)ccn1)=C(C#N)C#N` [O16], in assay [1], the “Assay 6: H2O2-resistant, at 10 uM, human dermal fibroblast (HDF) primary cells” value (“Assay 6: H2O2-resistant, at 10 uM” below) is given as “YES”. Moreover, the ILS at 66 µM in [2] (setting [11]) was determined as 16.8%; in [2] (setting [12]), 11.4%; in assay [2] (setting [13]), 19.7%; in [2] (Assay 5(ac), 1.0 × 10^11 bacteria/ml, CF512 worms, no FuDR, read-out: Lifespan assay on plates) it was 9.8%; in [2] (Assay 6(ad), 2.0 × 10^10 bacteria/ml, CF512 worms, no FuDR, read-out: Lifespan assay on plates), 9.9%; in assay [2] (Assay 7(ae), 1.0 × 10^11 bacteria/ml, CF512 worms, no FuDR, read-out: Lifespan assay on plates) it was 12.1%. In assay [3], the “Potential killing effects on HTB-178 tumor cells, 1st” value (“Potential killing effects … 1st” for short) is “YES;”. Besides, the “Potential killing effects on HTB-178 tumor cells, 2nd” value in assay [3] is recorded as “YES”. For the same compound, in [4], the EC50 is 20 µM.
In the case of `O=C(CCCc1nnc2n3nc(-c4ccccc4)nc3c3ccccc3n12)N1CCOCC1` [O8], the “Assay 6: H2O2-resistant, at 10 uM” value in assay [1] is on record as “YES”. The ILS at 66 µM came out at 6.6% in [2] (setting [11]), 3.8% in assay [2] (setting [12]) and 10% in [2] (setting [13]). The “Potential killing effects … 1st” value in assay [3] is “YES;”. The fold induction at 10 µM was determined as 0.82 in [5] (read-out: Induction of NRF2-regulated genes: GSTM1 normalized fold-change) and 1.07 in assay [6] (setting [14]). Besides, the EC50 in assay [4] is 20 µM.
Consider `CC(COc1ccc2c(c1)OCO2)NC(=O)Cc1nnc(O)c2ccccc12` (stereo not drawn) [Gr-2E], for which the “Inhibition of PARP1” value in [7] was “PARP inhibitors”. Moreover, the “Assay 17: NRF2-dependency for H2O2-resistance” value in [8] is “YES”. Further, the “Assay 6: H2O2-resistant, at 10 uM” value in [1] is listed as “YES”. Further, the ILS at 66 µM in assay [2] (setting [11]) worked out at 3.3%; in assay [2] (setting [12]), 4%; in assay [2] (setting [13]) it was 9.7%. Besides, the “Potential killing effects … 1st” value in assay [3] was “YES;”. Besides, the “Assay 4: H2O2- & Cd-resistant” value in [9] was “YES”. The “Assay 2: Cadmium-resistant” value in assay [9] is on record as “YES”. Also, the “Assay 1: H2O2-resistant” value in [4] is “YES”. In addition, the EC50 in assay [4] stood at 3.82 µM.
Regarding `COc1cc(-c2nc(C(N)=O)c3nc(O)n(-c4cccc(C)c4)c3n2)cc(Br)c1O` [O9], the ILS at 66 µM was 6.6% in assay [2] (setting [11]), 1.3% in assay [2] (setting [12]) and -0.3% in assay [2] (setting [13]). Also, the “Potential killing effects … 1st” value in assay [3] is “YES;”. In addition, the “Potential killing effects on HTB-178 tumor cells, 2nd” value in assay [3] is “YES”. The “Assay 4: H2O2- & Cd-resistant” value in assay [9] is given as “YES”. In addition, the “Assay 2: Cadmium-resistant” value in assay [9] is given as “YES”. Further, the fold induction at 10 µM in assay [5] (read-out: Induction of NRF2-regulated genes: HMOX1 normalized fold-change) worked out at 1.97; in assay [5] (read-out: Induction of NRF2-regulated genes: NQO1 normalized fold-change), 1.32; in assay [6] (read-out: Induction of FOXO3-regulated genes: SESN1 normalized fold-change), 1.19; in [6] (setting [14]), 1.15; in [6] (read-out: Induction of FOXO3-regulated genes: TXNIP normalized fold-change) it was 1.72. In addition, the “Assay 1: H2O2-resistant” value in [4] is “YES”. In addition, the EC50 in [4] came out at 14.2 µM. Also, the “Assay 3: MMS-resistant” value in [10] is on record as “YES”. Moreover, the “Assay 5: Triple resistant” value in [10] is “YES”.
Turning to `Oc1nnc(Cc2ccncc2)c2ccccc12` [Gr-2B], the “Inhibition of PARP1” value in [7] is on record as “inhibitors of PARP1; also recorded: PARP inhibitors”. Moreover, the “Assay 6: H2O2-resistant, at 10 uM” value in [1] is “YES”. For the same compound, in assay [2] (setting [11]), the ILS at 66 µM came out at 2.5%. The ILS at 66 µM in [2] (setting [12]) is -1.1%. The ILS at 66 µM in assay [2] (setting [13]) came out at 14.1%. Besides, in assay [3], the “Potential killing effects … 1st” value is given as “YES;”. In addition, in assay [9], the “Assay 4: H2O2- & Cd-resistant” value was “YES” and the “Assay 2: Cadmium-resistant” value was “YES”. Moreover, in assay [4], the “Assay 1: H2O2-resistant” value is listed as “YES” and the EC50 amounted to 3.05 µM. In addition, in assay [10], the “Assay 3: MMS-resistant” value is on record as “YES” and the “Assay 5: Triple resistant” value is on record as “YES”.

(Values after patent publication US11413278B2, “Compounds and methods for promoting stress resistance” (priority 2015, dated 2022).)
